Like-named read-outs stand apart in the source and are kept apart here.
Tests used:
[1] = Elimination in urine by LC-MS; format: in vivo; details: compared with 1(S)
[2] = for plasma concentration at 24 hours: female rats, single dose 1.5 mg/kg
[3] = Interconversion of atropisomers in blood plasma; format: in vivo; details: within 4 hours after administration of the atropisomer
Text: Another possible explanation for the difference in exposure is that 1(R) is interconverted to 1(S) over time. […] However, this small amount of conversion should only account for a fraction of the difference in exposure rates in vivo and other factors, such as selective elimination of 1(R), are likely to play the major role in the lowered exposure rate of 1(R).

[4] = Metabolic products in rat urine by LC-MS (FIG. 12); format: in vivo; details: rats, single 50 mg/kg oral dose of the atropisomer
Method: A single 50 mg/kg oral dose of either atropisomer 1(S) or 1(R) was administered to rat subjects. The rat urine was subsequently sampled and analyzed using LC-MS instrumentation.

[5] = human subject, oral radiolabeled atropisomer; for metabolite formation in plasma, 72 hours: 72 hours after administration
[6] = Plasma concentration of atropisomers in rats after oral dosing with racemic 1 (FIG. 6); format: in vivo; details: female rats, single 50 mg/kg oral dose of racemic 1, 8 hours after dosing
[7] = human; for AUClast / Cmax / T½: 25 mg racemate daily for 7 days, 40 nCi labeled spike on day 4
[8] = Solubility in a series of aqueous solvents (FIG. 4); format: physicochemical; details: variety of aqueous solutions
[9] = human subjects
p110δ [10] = biological target: T1, p110δ (Homo sapiens, UniProt O00329); assay: In vitro activity against p110 isoforms, cell-based assays (FIG. 5B); details: versus other p110 isoforms
T1 sequence (O00329 1-1044): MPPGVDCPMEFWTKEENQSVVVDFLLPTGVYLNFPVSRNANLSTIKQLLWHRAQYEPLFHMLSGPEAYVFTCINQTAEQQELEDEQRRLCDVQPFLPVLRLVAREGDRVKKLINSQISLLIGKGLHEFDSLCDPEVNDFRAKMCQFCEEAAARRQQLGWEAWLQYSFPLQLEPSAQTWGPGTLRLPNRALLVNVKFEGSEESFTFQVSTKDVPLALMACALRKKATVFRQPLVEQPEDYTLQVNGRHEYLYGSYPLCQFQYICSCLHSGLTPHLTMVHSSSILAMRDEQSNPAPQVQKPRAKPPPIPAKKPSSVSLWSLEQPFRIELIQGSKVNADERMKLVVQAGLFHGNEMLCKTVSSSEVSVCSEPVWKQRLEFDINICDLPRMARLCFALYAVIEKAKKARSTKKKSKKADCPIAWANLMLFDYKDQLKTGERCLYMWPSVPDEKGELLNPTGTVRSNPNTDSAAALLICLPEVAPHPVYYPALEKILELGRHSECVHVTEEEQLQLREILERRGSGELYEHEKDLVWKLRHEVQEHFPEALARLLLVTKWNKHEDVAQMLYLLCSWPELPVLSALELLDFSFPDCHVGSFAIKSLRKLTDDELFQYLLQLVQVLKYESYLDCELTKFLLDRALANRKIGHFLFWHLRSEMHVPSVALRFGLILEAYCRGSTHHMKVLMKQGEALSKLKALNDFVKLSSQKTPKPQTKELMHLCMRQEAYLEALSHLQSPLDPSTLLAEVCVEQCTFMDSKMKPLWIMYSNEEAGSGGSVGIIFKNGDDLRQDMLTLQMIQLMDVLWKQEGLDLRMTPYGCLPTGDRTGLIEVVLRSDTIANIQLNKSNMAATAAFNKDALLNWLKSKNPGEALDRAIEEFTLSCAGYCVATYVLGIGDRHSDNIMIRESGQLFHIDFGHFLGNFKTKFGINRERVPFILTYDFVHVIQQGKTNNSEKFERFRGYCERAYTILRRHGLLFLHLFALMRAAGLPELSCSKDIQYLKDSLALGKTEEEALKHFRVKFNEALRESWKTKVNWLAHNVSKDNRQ
Text: (§1) The in vitro activity of 1 and atropisomers, 1(S) and 1(R), have similar profiles in various isoforms of p110 inhibition as shown in FIGS. 5A and 5B. […] Although their in vitro potency appears to be similar, there are surprising in vivo differences observed between 1(S) and 1(R) as discovered in pharmacokinetic studies, mainly relating to the increased exposure of 1(S) and decreased exposure of 1(R) in the subject.

p110δ [11] = biological target: p110δ (Homo sapiens, UniProt O00329); assay: In vitro activity against p110 isoforms, biochemical assays (FIG. 5A); details: versus p110alpha, p110beta, p110 gamma isoforms
Text: as §1
Target sequence in this assay (P27986 whole entry partner, one chain of several, canonical isoform): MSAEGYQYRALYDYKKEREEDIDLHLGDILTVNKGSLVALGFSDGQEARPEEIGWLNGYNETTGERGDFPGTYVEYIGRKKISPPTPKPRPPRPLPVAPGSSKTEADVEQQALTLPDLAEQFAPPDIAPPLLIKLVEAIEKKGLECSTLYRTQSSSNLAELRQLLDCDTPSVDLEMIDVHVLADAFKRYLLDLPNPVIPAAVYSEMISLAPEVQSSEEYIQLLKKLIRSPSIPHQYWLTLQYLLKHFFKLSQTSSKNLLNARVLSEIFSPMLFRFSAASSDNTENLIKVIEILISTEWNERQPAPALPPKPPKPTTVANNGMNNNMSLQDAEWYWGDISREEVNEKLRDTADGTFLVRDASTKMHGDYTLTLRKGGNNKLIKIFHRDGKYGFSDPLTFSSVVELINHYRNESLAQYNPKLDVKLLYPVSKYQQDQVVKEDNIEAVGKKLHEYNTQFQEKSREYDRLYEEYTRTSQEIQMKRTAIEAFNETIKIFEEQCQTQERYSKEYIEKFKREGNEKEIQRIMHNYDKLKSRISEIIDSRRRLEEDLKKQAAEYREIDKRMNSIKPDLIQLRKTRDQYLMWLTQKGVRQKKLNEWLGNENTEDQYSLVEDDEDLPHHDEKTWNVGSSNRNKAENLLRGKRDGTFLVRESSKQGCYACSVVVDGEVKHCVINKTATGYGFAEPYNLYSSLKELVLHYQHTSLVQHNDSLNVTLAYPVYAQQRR

[12] = Plasma concentration of atropisomers in dogs after oral dosing with racemic 1 (FIG. 7); format: in vivo; details: female dogs, single 50 mg/kg oral dose of racemic 1
Method: The tagged racemic mixture or separated atropisomers were administered in rats, dogs, and human subjects through oral and i.v. routes. The compounds were dissolved in PEG 100 such that any difference in dissolution rates would not play a role in the pharmacokinetic profile of the compounds. […] After administration of the compound, blood plasma of the subjects were sampled over time and evaluated by analytical HPLC methods developed to identify and measure concentrations of compound 1(S) or 1(R) present in the sample. It was observed that the most abundant isomer measured in the plasma is compound 1(S), which accounts for 70-80% of exposure to the subject.
In approximately 1 hour after dosing the maximum concentration of compounds 1(S) and 1(R) is reached. At that point, the concentration of 1(R) is less than half the concentration of compound 1(S). […] These large differences in pharmacokinetic behavior were not predictable.

clinical = details: human, plasma, po, 100 mg
[13] = compounds dissolved in PEG 100
in vivo = details: female, Sprague Dawley, rat, iv
[14] = Metabolites in human plasma; details: human subjects dosed with the substance
[15] = Plasma concentration in rats after single oral dose of 1(S) or 1(R) (FIG. 9B); format: in vivo, rat; details: female rats, single oral dose 1.5 mg/kg, 12 hour time point
[16] = Plasma concentration in human subjects after a single oral dose of 100 mg or 10 mg (FIG. 10); format: in vivo
[17] = test system: collagen induced arthritis (CIA) rats; assay: Collagen induced arthritis (CIA) rats; format: in vivo, rat; details: compared to vehicle
[18] = Human pharmacokinetics, racemic mixture versus 1(S) at 10 mg once daily; format: in vivo
Method: Human pharmacokinetic was obtained after both the racemic mixture and 1(S) were administered at 10 mg once daily. […] Since the dose is low and well absorbed, as evidenced by the determination of 100% bioavailability, it is likely that the 1(R) metabolism is greater. The greater extent and complexity of 1(R) metabolism was supported by studies on human and rat in vivo metabolism as well as in vitro studies of human liver microsomes and protein binding.

[19] = Metabolites in human urine by LC/MS/MS; details: humans
Text: Urine was collected from humans dosed the racemic mixture and evaluated for possible metabolites using LC/MS/MS.

[20] = female SD rats, single bolus i.v.
[21] = 25 mg racemate daily, labeled spike on day 4, after day 1
[22] = single 100 mg oral dose of racemic 1

Structure (SMILES): Cc1ccccc1-n1c(Cn2cnc3c(N)ncnc32)nc2cccc(C)c2c1=O (single isomer, unassigned) [Compound 1(R), 2-((6-amino-9H-purin-9-yl)methyl)-5-methyl-3-o-tolylquinazolin-4(3H)-one]
- elimination in urine [1]: preferentially eliminated in urine
- Vz of 1(R) relative to 1(S) or racemic mixture [2, 20]: about 2.6 times
- half life of 1(R) relative to 1(S) or racemic mixture 1 [2, 20]: about 2.8 times
- plasma concentration at 24 hours [2]: very low
- conversion to the other atropisomer in blood plasma [3]: approximately 14%
- metabolic products found in urine [4]: more metabolic products
- metabolite formation in plasma, 72 hours [5]: primarily the metabolites are detected
- average plasma concentration of 1(R) relative to 1(S) [6]: approximately one-fourth
- AUClast [7]: 21676 neq*h/mL
- Cmax [7]: 1946 neq/mL
- concentration of 14C radiolabeled material in blood plasma ([7]; 25 mg racemate daily, labeled spike on day 4, 50 hours from dosing): 10-50 neq/mL
- concentration of 1(R) relative to 1(S) [7, 21]: about one-fourth
- concentration of 14C radiolabeled material in blood plasma [7, 21]: about 500 neq/mL
- solubility differences between 1(S) and 1(R) [8]: Modest solubility differences
- plasma concentration of 1(R) relative to 1(S) at maximum concentration [9, 22]: less than half
- p110δ inhibition in cell-based assays (p110δ [10]): selective p110δ inhibition
- p110δ inhibition in biochemical assays (p110δ [11]): selective p110δ inhibition
- plasma concentration of 1(R) relative to 1(S) at maximum concentration [12]: less than half
- time to maximum plasma concentration [12]: approximately 1 hour
- half-life (clinical; half-life, human subjects, single 100 mg oral dose of racemic 1): ~9 h

Structure (SMILES): Cc1ccccc1-n1c(Cn2cnc3c(N)ncnc32)nc2cccc(C)c2c1=O (single isomer, unassigned) [Compound 1(S), 2-((6-amino-9H-purin-9-yl)methyl)-5-methyl-3-o-tolylquinazolin-4(3H)-one]
- plasma concentration at 24 hours [2]: very low
- conversion to the other atropisomer in blood plasma [3]: less than 1%
- share of exposure to the subject (most abundant isomer in plasma) [13]: 70-80%
- AUC (in vivo; plasma, 1.5 mg/kg): 865 ± 212 ng·h/mL
- Vd (in vivo; plasma, 1.5 mg/kg): 5.77 ± 2.74 L/kg
- clearance (in vivo; plasma, 1.5 mg/kg): 30.6 mL/min/kg
- half-life (in vivo; plasma, 1.5 mg/kg): 2.5 ± 1.6 h
- metabolic products found in urine [4]: mainly one compound
- metabolite formation in plasma, 1 hour ([5]; 1 hour after administration): remains largely unmodified
- metabolite formation in plasma, 72 hours [5]: still less than the amount of the parent compound
- number of metabolites observed in plasma [14]: one
- plasma concentration of 1(S) versus 1(R) [15]: greatly exceed
- maximum plasma concentration of 1(S) relative to 1(R) ([16]; single oral dose of 10 mg): about double
- maximum plasma concentration of 1(S) relative to 1(R) ([16]; single oral dose of 100 mg): over 2 times
- anti-collagen antibody levels ([17]; FIG. 15): reduction of collagen antibody levels
- X-ray score (radiographic assessment) ([17]; FIG. 16): reduction in the X-ray score
- histopathology, dark areas of tissue images ([17]; similar to MTX, FIGS. 17A-D): reduced
- arthritis score ([17]; versus days post compound dosing, FIG. 14): activity in reducing the severity of arthritis
- AUClast [7]: 90511 neq*h/mL
- Cmax [7]: 3930 neq/mL
- T½ [7]: 63.9 h
- AUC of 1(S) relative to 1(R) ([7]; data of FIG. 11): over 4 times
- Cmax of 1(S) relative to 1(R) ([7]; data of FIG. 11): twice
- half-life of 1(S) relative to 1(R) ([7]; data of FIG. 11): 6 times
- solubility differences between 1(S) and 1(R) [8]: Modest solubility differences
- Cmax of 1(S) greater than racemic mixture [18]: 30%
- increase of AUC0-24 of 1(S) over racemic mixture ([18]; Day 1): 2.4 fold
- increase of AUC0-24 of 1(S) over racemic mixture ([18]; Day 7): 40%
- half-life in humans (in words) ([9]; oral racemic 1, greater than in dogs): several days
- share of the exposure at the maximum concentration point [9, 22]: approximately 70%
- plasma concentration of 1(S) relative to 1(R) ([9]; single 100 mg oral dose of racemic 1, 72 hours post-dosing): over 10 times
- p110δ inhibition in cell-based assays (p110δ [10]): selective p110δ inhibition
- p110δ inhibition in biochemical assays (p110δ [11]): selective p110δ inhibition
- time to maximum plasma concentration [12]: approximately 1 hour
- half-life (clinical): > 72 h

Structure (SMILES): Cc1ccccc1-n1c(Cn2cnc3c(N)ncnc32)nc2cccc(C)c2c1=O (single isomer, unassigned) [Compound 1, 2-((6-amino-9H-purin-9-yl)methyl)-5-methyl-3-o-tolylquinazolin-4(3H)-one]
- AUC (in vivo; in vivo, 3 mg/kg): 1970 ± 243 ng·h/mL
- Vd (in vivo; in vivo, 3 mg/kg): 5.4 ± 1.57 L/kg
- clearance (in vivo; in vivo, 3 mg/kg): 26 mL/min/kg
- half-life (in vivo; in vivo, 3 mg/kg): 2.5 ± 0.7 h
- number of metabolites observed in plasma ([14]; listed as racemic mixture): 2
- number of metabolites confirmed in urine ([19]; authentic racemic standards, achiral method): 5
- total number of metabolites observed in urine ([19]; counting atropisomers of metabolites): 9
- AUClast [7]: 51,032 ± 22,383 neq*h/mL
- Cmax [7]: 2780 ± 1163 neq/mL
- T½ [7]: 69.9 ± 26.6 h
- p110δ inhibition in cell-based assays (p110δ [10]): selective p110δ inhibition
- p110δ inhibition in biochemical assays (p110δ [11]): selective p110δ inhibition

Reference: patent publication US8440677B2, “Atropisomers of 2-purinyl-3-tolyl-quinazolinone derivatives and methods of use” (Gilead Calistoga LLC, priority 2009, dated 2013)
